Laboratory results published in article PMC4350332 (Oncotarget, 2014).

Assays:
[1] = system: PDC activity in K562 cells; assay: Cellular PDC activity assay, K562; type: cell-based; settings: 20 μM VER-246608 or […] Nov3r
Procedure: Cellular PDC activity was determined using a commercial assay kit (Abcam) as per the manufacturer's instructions. Briefly, PC-3 and K562 cell suspensions at a density of 1×10^6 and 1.5×10^6, respectively, were transferred to 96 well plates (250 μL per well). Cells were pre-treated with compound or DMSO for 1 h in a CO2incubator at 37°C followed by cell lysis in 250 μL of a 9:1 dilution of assay kit detergent (containing 20 mM NaF and 40 μM of the PDK inhibitor VER-246550) for 10 min on ice. The cellular debris was then pelleted at 1000g for 10 min. A 200 μL aliquot of each lysate was then transferred to the immunocapture microplate. PDC reaction rates were determined from the slope of the reaction curves and expressed as a percentage of the vehicle (DMSO) control values. […]
transformed and additional cancer cell lines. A, The indicated cell lines were seeded into […]
relevant media containing either 2 g/L D-glucose or D-galactose for 96 h. Cell mass was determined using the sulforhodamine B assay. Results are expressed as the percentage change vs DMSO control values for cells incubated in D-glucose containing media. […]
analysis of pyruvate dehydrogenase (PDH) activity in cell lysates using a commercially available ELISA-based assay kit (Abcam). Results are expressed as a percentage of the PDH reaction rate in DMSO treated cells. […]

[2] = system: p(Ser^293)E1α in PC-3 cells; assay: Immunoblot time course of biomarker suppression in PC-3 cells; type: cell-based; settings: Fig. 2F
Procedure: Cell lysates were prepared by washing cells with PBS followed by the addition of lysis buffer (2% SDS, 50 mM TRIS-pH 6.8) directly to the well. Equal amounts of lysate were loaded onto pre-cast 4-12% SDS-PAGE gels (Life technologies) followed by transfer to PVDF membrane. The membranes were blocked for 1 h in TBST containing 5% non-fat dried milk, followed by a 2 h incubation with the relevant primary antibody: PDH phospho(Ser^293)E1α (Genescript, custom rabbit polyclonal antibody), 1:600; PDH E1α (Abcam), 1:1000; PDP-1 (Sigma), 1:2000; PDK-1 (ENZO), 1:1000; HSP-70 (Santa Cruz), 1:5000; β-tubulin (Cell signaling technology), 1:1000. The membranes were then incubated with HRP-linked goat anti-rabbit or anti-mouse secondary antibodies (Santa Cruz) followed by visualization of immunoreactive bands by the addition of a chemiluminescent substrate (Millipore).

[3] = system: HSP-70 induction in PC-3 cells (biomarker for HSP-90 inhibition); assay: HSP-70 in-cell ELISA assay; type: cell-based; settings: for EC50: PD marker (ELISA), PC-3 cells, 24 h
Procedure: DELFIA assay reagents (assay buffer, enhancement solution and europium-labeled secondary antibody) were obtained from Perkin Elmer (MD, USA). PC-3 cells were seeded (1×10^4 per well) into 96 well black-walled cell culture plates. The following day, the cells were treated with a 10 point tripling dilution series of test compound for 24 h followed by fixation with TBS containing 4% formaldehyde for 15 min at RT. The cells were then permeabilized the addition of permeabilization buffer (TBS containing 1% triton-X-100) and a further 15 min incubation at RT. The cells were then washed 3X with TBS, followed by the addition of quenching solution (TBS containing 1% H2O2), a 20 min incubation at RT and a further 3X wash with TBS. The permeabilized cells were then incubated for 30 minutes with blocking buffer (TBS containing 5% (w/v) dried milk) followed by a 90 min incubation with HSP-70 primary antibody (ENZO; 1:1000 dilution in TBS containing 200 μg/ml BSA). The wells were then washed 3X with wash buffer (TBS containing 0.1% Tween-20), followed by the addition of europium-labeled anti-mouse secondary antibody (1:1000 in DELFIA assay buffer) and a 1 h incubation at RT. The wells were then washed 3X with wash buffer followed by the addition of enhancement solution.

[4] = molecular target: T1, HSP-90 (Homo sapiens, UniProt P08238); assay: HSP-90 fluorescence polarization assay; type: binding; settings: read-out: HSP-90 FP, IC50
T1 construct: made in house
Procedure: The HSP-90ß FP assay was conducted as previously described.

[5] = system: PDC activity in PC-3 cells; assay: Cellular PDC activity assay, PC-3; type: cell-based; settings: magnitude greater for VER-246608
Procedure: Cellular PDC activity was determined using a commercial assay kit (Abcam) as per the manufacturer's instructions. Briefly, PC-3 and K562 cell suspensions at a density of 1×10^6 and 1.5×10^6, respectively, were transferred to 96 well plates (250 μL per well). Cells were pre-treated with compound or DMSO for 1 h in a CO2incubator at 37°C followed by cell lysis in 250 μL of a 9:1 dilution of assay kit detergent (containing 20 mM NaF and 40 μM of the PDK inhibitor VER-246550) for 10 min on ice. The cellular debris was then pelleted at 1000g for 10 min. A 200 μL aliquot of each lysate was then transferred to the immunocapture microplate. PDC reaction rates were determined from the slope of the reaction curves and expressed as a percentage of the vehicle (DMSO) control values.

T1 sequence (P08238 whole entry, species assumed): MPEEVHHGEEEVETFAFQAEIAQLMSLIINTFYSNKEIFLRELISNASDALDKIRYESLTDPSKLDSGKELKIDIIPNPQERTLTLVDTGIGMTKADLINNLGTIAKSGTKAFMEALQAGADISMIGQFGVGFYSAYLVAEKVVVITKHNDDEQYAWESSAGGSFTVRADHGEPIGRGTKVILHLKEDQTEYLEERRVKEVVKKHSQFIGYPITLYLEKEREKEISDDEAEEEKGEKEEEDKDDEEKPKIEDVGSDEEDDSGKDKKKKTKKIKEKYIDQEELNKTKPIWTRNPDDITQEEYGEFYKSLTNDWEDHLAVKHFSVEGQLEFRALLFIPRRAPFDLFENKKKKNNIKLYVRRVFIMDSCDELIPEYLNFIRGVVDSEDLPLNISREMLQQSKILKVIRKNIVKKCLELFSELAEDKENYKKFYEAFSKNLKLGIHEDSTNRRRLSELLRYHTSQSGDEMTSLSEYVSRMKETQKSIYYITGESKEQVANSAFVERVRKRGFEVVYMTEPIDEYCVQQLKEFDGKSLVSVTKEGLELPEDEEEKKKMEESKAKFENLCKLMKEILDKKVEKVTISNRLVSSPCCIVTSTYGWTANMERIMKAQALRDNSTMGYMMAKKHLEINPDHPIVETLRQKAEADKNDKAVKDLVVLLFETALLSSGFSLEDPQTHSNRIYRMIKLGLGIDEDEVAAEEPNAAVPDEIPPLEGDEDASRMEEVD

| EC50 [3] [µM] | SMILES | Increase in PDC activity [1] | Period of time to achieve maximal biomarker suppression [2] [min] | EC50 ([3]; Homo sapiens) [µM] | Induction of HSP-70 in PC-3 cells ([3]; biomarker for HSP-90 inhibition) | IC50 [4] [µM] | Increase in PDC activity [5] |
| --- | --- | --- | --- | --- | --- | --- | --- |
|  | Cc1cnc(Cl)nc1-c1ccc(N(Cc2ccc(CNC(=O)C(F)F)cc2)C(=O)c2ccc(O)cc2O)cc1 [VER-246608] | an increase in PDC activity | 16 | > 80 | lack of a detectable induction | > 100 | an increase in PDC activity |
| > 80 | C[C@@H]1CN(C(=O)[C@](C)(O)C(F)(F)F)[C@@H](C)CN1C(=O)c1ccc(C#N)cc1 [Nov3r, reference compound] | an increase in PDC activity | 16 |  |  | > 200 | an increase in PDC activity |
